In ChEMBL document CHEMBL5625202, “Synthesis, characterization and anti-breast cancer activities of stachydrine derivatives” (Eur J Med Chem, 2023):
Activity calls are given as the source filed them. The rule behind the calls is not given here.

What was measured:
[1] = Toxicity in BALB/c mouse implanted with mouse 4T1 cells assessed as increase in AST level at 0.2 mmol/Kg, po administered once every day for 14 days by routine blood analysis; type: organism-based; settings: in vivo, 336 h, time 14 day
[2] = Toxicity in BALB/c mouse implanted with mouse 4T1 cells assessed as effect on CREA level at 0.2 mmol/Kg, po administered once every day for 14 days by routine blood analysis; type: organism-based; settings: in vivo, 336 h, time 14 day
[3] = system: 4T1; assay: Anticancer activity against mouse 4T1 cells assessed as inhibition of cell growth incubated for 24 hrs by CCK-8 assay; type: functional, cell-based; settings: 4T1, 24 h
[4] = system: 4T1; assay: Induction of G0/G1 phase cell cycle arrest in mouse 4T1 cells assessed as decrease in S phase cells at 1.25 to 40 uM incubated for 24 hrs by flow cytometry; type: functional, cell-based; settings: dose 1.25-40 µM
[5] = system: 4T1; assay: Induction of apoptosis in mouse 4T1 cells assessed as caspase-3 activation at 10 uM incubated for 24 hrs by Western blot analysis; type: functional, cell-based
[6] = Toxicity in BALB/c mouse implanted with mouse 4T1 cells assessed as change in liver histopathology at 0.2 mmol/Kg, po administered once every day for 14 days; type: organism-based; settings: in vivo, 336 h, time 14 day
[7] = Toxicity in BALB/c mouse implanted with mouse 4T1 cells assessed as reduction in spleen index at 0.2 mmol/Kg, po administered once every day for 14 days relative to control; type: organism-based; parameters: scale not given: the % may be the effect or the level left; settings: in vivo, 336 h, at 0.2 mmol/kg, time 14 day
[8] = system: 4T1; assay: Induction of cell cycle arrest in mouse 4T1 cells assessed as accumulation of cells in G0/G1 phase at 40 micromol/L incubated for 24 hrs by flow cytometry (reference value: 53.6%); type: functional; settings: dose 40 µmol/L, at 40 µM
[9] = system: 4T1; assay: Induction of mitochondrial membrane potential loss in mouse 4T1 cells assessed as red fluorescence at 10 uM incubated for 24 hrs by JC-1 staining based flow cytometric analysis (Rvb= 87.9%); type: cell-based
[10] = Oral bioavailability in Sprague-Dawley rat at 10 mg/kg measured upto 24 hrs by LC-MS/MS analysis; type: ADME, organism-based; settings: in vivo
[11] = system: 4T1; assay: Antitumor activity against mouse 4T1 cells implanted in BALB/c mouse assessed as appearance of larger void areas in tumor at 0.2 mmol/Kg, po administered once daily for 14 days by histological staining based analysis; type: functional, organism-based; settings: time 14.0 day
[12] = Half life in Sprague-Dawley rat plasma at 10 mg/kg, po measured upto 24 hrs by LC-MS/MS analysis; type: ADME, organism-based
[13] = system: 4T1; assay: Induction of apoptosis in mouse 4T1 cells assessed as apoptotic rate at 10 micromol/L incubated for 24 hrs by Annexin-V/PI staining based flow cytometry relative to control; type: functional; settings: dose 10 µmol/L, at 10 µM
[14] = Toxicity in BALB/c mouse implanted with mouse 4T1 cells assessed as increase in monocytes at 0.2 mmol/Kg, po administered once every day for 14 days by routine blood analysis; type: organism-based; settings: in vivo, 336 h, time 14 day
[15] = Tmax in Sprague-Dawley rat plasma at 10 mg/kg, po measured upto 24 hrs by LC-MS/MS analysis; type: ADME, organism-based
[16] = Cmax in Sprague-Dawley rat plasma at 10 mg/kg, po measured upto 24 hrs by LC-MS/MS analysis; type: ADME, organism-based
[17] = Toxicity in BALB/c mouse implanted with mouse 4T1 cells assessed as change in kidney histopathology at 0.2 mmol/Kg, po administered once every day for 14 days; type: organism-based; settings: in vivo, 336 h, time 14 day
[18] = system: 4T1; assay: Inhibition of cell invasion in mouse 4T1 cells at 30 micromol/mL incubated for 24 hrs by microscopic analysis; type: functional, cell-based; settings: dose 30.0 µmol/ml
[19] = system: 4T1; assay: Antitumor activity against mouse 4T1 cells implanted in BALB/c mouse assessed as tumor cell shrinkage at 0.2 mmol/Kg, po administered once every day for 14 days by histological staining based analysis; type: functional, organism-based; settings: time 14.0 day
[20] = Toxicity in BALB/c mouse implanted with mouse 4T1 cells assessed as increase in lymphocytes at 0.2 mmol/Kg, po administered once every day for 14 days by routine blood analysis; type: organism-based; settings: in vivo, 336 h, time 14 day
[21] = Toxicity in BALB/c mouse implanted with mouse 4T1 cells assessed as increase in spleen edema at 0.2 mmol/Kg, po administered once every day for 14 days relative to control; type: organism-based; settings: in vivo, 336 h, time 14 day
[22] = system: 4T1; assay: Anticancer activity against mouse 4T1 cells assessed as inhibition of cell growth incubated for 72 hrs by CCK-8 assay; type: functional, cell-based; settings: 4T1, 72 h
[23] = Toxicity in BALB/c mouse implanted with mouse 4T1 cells assessed as increase in neutrophil granulocytes at 0.2 mmol/Kg, po administered once every day for 14 days by routine blood analysis; type: organism-based; settings: in vivo, 336 h, time 14 day
[24] = system: 4T1; assay: Induction of apoptosis in mouse 4T1 cells assessed as increase in Bax expression at 10 uM incubated for 24 hrs by Western blot analysis; type: functional, cell-based
[25] = Toxicity in BALB/c mouse implanted with mouse 4T1 cells assessed as change in heart histopathology at 0.2 mmol/Kg, po administered once every day for 14 days; type: organism-based; settings: in vivo, 336 h, time 14 day
[26] = system: 4T1; assay: Antitumor activity against mouse 4T1 cells implanted in BALB/c mouse assessed as change in tumor weight at 0.2 mmol/Kg, po administered once every day for 14 days; type: functional, organism-based; settings: time 14.0 day
[27] = Toxicity in BALB/c mouse implanted with mouse 4T1 cells assessed as increase in mean platelet volume at 0.2 mmol/Kg, po administered once every day for 14 days by routine blood analysis; type: organism-based; settings: in vivo, 336 h, time 14 day
[28] = Toxicity in BALB/c mouse implanted with mouse 4T1 cells assessed as increase in ALT level at 0.2 mmol/Kg, po administered once every day for 14 days by routine blood analysis; type: organism-based; settings: in vivo, 336 h, time 14 day
[29] = Toxicity in BALB/c mouse implanted with mouse 4T1 cells assessed as blurred spleen morphology at 0.2 mmol/Kg, po administered once every day for 14 days; type: organism-based; settings: in vivo, 336 h, time 14 day
[30] = system: 4T1; assay: Antitumor activity against mouse 4T1 cells implanted in BALB/c mouse assessed as tumor cell necrosis at 0.2 mmol/Kg, po administered once every day for 14 days by histological staining based analysis; type: functional, organism-based; settings: time 14.0 day
[31] = Prodrug conversion in carboxylesterase (unknown origin) solution assessed as drug hydrolysis by measuring stachydrine release at 3 to 20 hrs; type: ADME, Homo sapiens; settings: time 3-20 hrs
[32] = system: 4T1; assay: Anticancer activity against mouse 4T1 cells assessed as inhibition of cell growth incubated for 48 hrs by CCK-8 assay; type: functional, cell-based; settings: 4T1, 48 h
[33] = system: 4T1; assay: Induction of cell cycle arrest in mouse 4T1 cells assessed as accumulation of cells in G0/G1 phase at 10 uM incubated for 24 hrs by flow cytometry relative to control; type: functional
[34] = AUC (0 to t) in Sprague-Dawley rat plasma at 10 mg/kg, po measured upto 24 hrs by LC-MS/MS analysis; type: ADME, organism-based
[35] = system: 4T1; assay: Inhibition of cell migration in mouse 4T1 cells assessed as reduction in wound healing incubated for 24 hrs by microscopic analysis; type: functional, cell-based
[36] = Toxicity in BALB/c mouse implanted with mouse 4T1 cells assessed as increase in splenic red pulp at 0.2 mmol/Kg, po administered once every day for 14 days; type: organism-based; settings: in vivo, 336 h, time 14 day
[37] = system: 4T1; assay: Induction of apoptosis in mouse 4T1 cells assessed as apoptotic rate at 1.25 micromol/L incubated for 24 hrs by Annexin-V/PI staining based flow cytometry relative to control; type: functional; settings: dose 1.25 µmol/L, at 1.25 µM
[38] = system: 4T1; assay: Induction of mitochondrial membrane potential loss in mouse 4T1 cells assessed as green fluorescence at 10 uM incubated for 24 hrs by JC-1 staining based flow cytometric analysis (reference value: 11.7%); type: cell-based

**Q.** What does the source list for CCCCCCCCCCCCOC(=O)C1CCC[N+]1(C)C.[Cl-] (stereo not drawn)?
**A.** Activity [1]: Toxic; Activity [2]: Non-Toxic; IC50 [3]: 24.7 µM; Activity [4]: Active; Activity [5]: Active; Activity [6]: Non-Toxic; Activity [7]: 60%; Activity [8]: 64.5%; Activity [9]: 43.1%; bioavailability [10]: 79.6%; Activity [11]: Active; half-life [12]: 7.62 h; Activity [13]: 59%; Activity [14]: Non-Toxic; Tmax [15]: 2 h; Cmax [16]: 6.1 µg/mL; Activity [17]: Non-Toxic; inhibition [18]: Active; Activity [19]: Active; Activity [20]: Non-Toxic; Activity [21]: Toxic; IC50 [22]: 8.35 µM; Activity [23]: Non-Toxic; Activity [24]: Active; Activity [25]: Non-Toxic; Activity [26]: Active; Activity [27]: Non-Toxic; Activity [28]: Toxic; Activity [29]: Toxic; Activity [30]: Active; Drug metabolism [31]: Metabolite_Detected; IC50 [32]: 17.9 µM; Activity [33]: ~56%; AUC(0-t) at 24 h [34]: 14.8 µg·h/mL; inhibition [35]: Dose-Dependent Effect; Activity [36]: Toxic; Activity [37]: 38.5%; Activity [38]: 56.8%
